29 compounds from patent publication US20240246979A1, “cGAS INHIBITORS” (Eli Lilly and Company, priority 2022, published 2024) can be followed below.

Assay [1] has as its target T1, cGAS (Homo sapiens, UniProt Q8N884). The experiment in a line: Cellular assay to measure cGAS activity (IFNb AlphaLISA in THP1 cells stimulated by RDG-Adenovirus-GFP). The format is cell-based. Details: host or cells: THP1 cells differentiated with PMA and stimulated with RDG-Adenovirus-GFP. The settings on record: PMA-differentiated THP1 cells, RDG-Adenovirus-GFP at 1000 MOI; inhibition of IFNb production as marker for cGAS activity. The method, boiled down: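 The readout is secreted IFNb measured by AlphaLISA after overnight compound exposure. THP1 cells, differentiated with PMA for 24 h and rested overnight, were infected with RDG-Adenovirus-GFP (1000 MOI, 4 h) before compounds were added; IC50 came from a 4-parameter logistic fit of inhibition against log concentration.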
A general note: Alpha assays give light when donor and acceptor beads are brought close together.

The target of assay [2] is T1, cGAS. Nature of the assay: In vitro inhibition assay of cGAS activity (cGAMP production, RapidFire mass spectrometry). The arrangement: Insert cDNA encoding full-length of human cGAS; His6; made in house; host or cells: E. coli BL21(DE3). The conditions noted are these: 10 nM recombinant human cGAS, 60 nM 75-bp dsDNA, 50 μM ATP, 50 μM GTP, 3 hrs. The class given is biochemical. The method, boiled down:
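Reactions in 10 mM Tris-Cl pH 7.5, 5 mM MgCl2, 0.01% Triton X-100 contained serially diluted compound, 10 nM recombinant cGAS, dsDNA activator and 50 μM each of ATP and GTP, run 3 hrs at ambient temperature. After formic acid quench, cGAMP output was measured by mass spectrometry and percent inhibition versus log concentration was fitted for IC50.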

T1 sequence (Q8N884 whole entry): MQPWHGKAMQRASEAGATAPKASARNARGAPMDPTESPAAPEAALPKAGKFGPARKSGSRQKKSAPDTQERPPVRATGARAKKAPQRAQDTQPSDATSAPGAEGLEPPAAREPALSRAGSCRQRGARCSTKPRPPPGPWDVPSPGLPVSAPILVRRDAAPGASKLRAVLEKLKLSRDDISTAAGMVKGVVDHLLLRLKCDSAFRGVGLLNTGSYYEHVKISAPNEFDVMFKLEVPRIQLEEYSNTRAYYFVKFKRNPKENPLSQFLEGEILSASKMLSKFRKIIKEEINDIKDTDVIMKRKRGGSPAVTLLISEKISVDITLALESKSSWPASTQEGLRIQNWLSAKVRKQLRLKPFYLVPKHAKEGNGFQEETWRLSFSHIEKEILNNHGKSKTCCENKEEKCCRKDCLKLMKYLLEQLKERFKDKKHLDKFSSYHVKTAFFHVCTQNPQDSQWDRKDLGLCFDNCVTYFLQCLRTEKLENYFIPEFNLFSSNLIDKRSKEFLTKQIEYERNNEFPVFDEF

In general, IC50 refers to the concentration that gives 50% inhibition. Regarding `CNC(=O)CC1CNC(=O)Cc2c1[nH]c1c(Cl)c(Cl)cc(-c3cnn(C)n3)c21` (stereo not shown) [Example 6, 2-(7,8-Dichloro-10-(2-methyl-2H-1,2,3-triazol-4-yl)-2-oxo-1,2,3,4,5,6-hexahydroazepino[4,5-b]indol-5-yl)-N-methylacetamide], the IC50 in assay [1] is more than 10000 nM; in assay [2] it was 15.6 nM.
Turning to `CN(C)C(=O)CC1CNC(=O)Cc2c1[nH]c1c(Cl)c(Cl)cc(-c3cnn(C)n3)c21` (stereo not shown) [Example 7, 2-(7,8-Dichloro-10-(2-methyl-2H-1,2,3-triazol-4-yl)-2-oxo-1,2,3,4,5,6-hexahydroazepino[4,5-b]indol-5-yl)-N,N-dimethylacetamide], the IC50 in assay [1] is 661 nM; in assay [2], 28.1 nM.
For the compound `CC1C(=O)NCCc2[nH]c3c(Cl)c(Cl)cc(-c4cnn(C)n4)c3c21` (stereo not shown) [Example 9, 7,8-Dichloro-1-methyl-10-(2-methyl-2H-1,2,3-triazol-4-yl)-3,4,5,6-tetrahydroazepino[4,5-b]indol-2(1H)-one], the results for the IC50 in assay [1] and in assay [2] were 2160 nM and 87 nM, respectively.
In the case of `COc1cc(Cl)c(Cl)c2[nH]c3c(c12)C(C)C(=O)NCC3` (stereo not shown) [Example 10, 7,8-Dichloro-10-methoxy-1-methyl-3,4,5,6-tetrahydroazepino[4,5-b]indol-2(1H)-one], the IC50 in assay [1] stood at 2730 nM; in assay [2], 124 nM.
As for `CCC1C(=O)NCCc2[nH]c3c(Cl)c(Cl)cc(NC(=O)CO)c3c21` (stereo not shown) [Example 11, N-(7,8-Dichloro-1-ethyl-2-oxo-1,2,3,4,5,6-hexahydroazepino[4,5-b]indol-10-yl)-2-hydroxyacetamide], the IC50 in assay [1] stood at 1760 nM; in assay [2], 45.4 nM.
Consider `CC1C(=O)NCCc2[nH]c3c(Cl)c(Cl)cc(OCCO)c3c21` (stereo not shown) [Example 18, 7,8-Dichloro-10-(2-hydroxyethoxy)-1-methyl-3,4,5,6-tetrahydroazepino[4,5-b]indol-2(1H)-one], for which the values for the IC50 in assay [1] and in assay [2] were 2070 nM and 70.9 nM, respectively.
As to `O=C1Cc2c([nH]c3c(Cl)c(Cl)cc(-c4cn[nH]c4)c23)CCN1` [Example 19, 7,8-Dichloro-10-(1H-pyrazol-4-yl)-3,4,5,6-tetrahydroazepino[4,5-b]indol-2(1H)-one], the IC50 in assay [1] was more than 10000 nM; in assay [2], 93.6 nM.
On to `NC(=O)COc1cc(Cl)c(Cl)c2[nH]c3c(c12)CC(=O)NCC3` [Example 20, 2-((7,8-Dichloro-2-oxo-1,2,3,4,5,6-hexahydroazepino[4,5-b]indol-10-yl)oxy)acetamide], for which the figures for the IC50 in assay [1] and in assay [2] were more than 10000 nM and 132 nM, respectively.
For `O=C1Cc2c([nH]c3c(Cl)c(Cl)cc(NCCCO)c23)CCN1` [Example 22, 7,8-Dichloro-10-((3-hydroxypropyl)amino)-3,4,5,6-tetrahydroazepino[4,5-b]indol-2(1H)-one], the IC50 was determined as 4580 nM in assay [1] and 45.9 nM in assay [2].
The like results for `O=C1Cc2c([nH]c3c(Cl)c(Cl)cc(OCCCO)c23)CCN1` [Example 23, 7,8-Dichloro-10-(3-hydroxypropoxy)-3,4,5,6-tetrahydroazepino[4,5-b]indol-2(1H)-one] were, in that order, 7790 nM and 118 nM.
Turning to `O=C1Cc2c([nH]c3c(Cl)c(Cl)cc(NC(=O)CO)c23)CCN1` [Example 24, N-(7,8-Dichloro-2-oxo-1,2,3,4,5,6-hexahydroazepino[4,5-b]indol-10-yl)-2-hydroxyacetamide], the figures for the IC50 in assay [1] and in assay [2] were 6910 nM and 88.4 nM, respectively.
Turning to `Cc1noc(-c2cc(Cl)c(Cl)c3[nH]c4c(c23)CC(=O)NCC4)n1` [Example 25, 7,8-Dichloro-10-(3-methyl-1,2,4-oxadiazol-5-yl)-3,4,5,6-tetrahydroazepino[4,5-b]indol-2(1H)-one], the figures for the IC50 in assay [1] and in assay [2] were more than 10000 nM and 27.1 nM, respectively.
For `O=C1Cc2c([nH]c3c(Cl)c(Cl)cc(-c4nc(CO)no4)c23)CCN1` [Example 26, 7,8-Dichloro-10-(3-(hydroxymethyl)-1,2,4-oxadiazol-5-yl)-3,4,5,6-tetrahydroazepino[4,5-b]indol-2(1H)-one], the IC50 in assay [1] is more than 10000 nM; in assay [2] it was 133 nM.
As to `O=C1Cc2c([nH]c3c(Cl)c(Cl)cc(-c4cnco4)c23)CCN1` [Example 27, 7,8-Dichloro-10-(oxazol-5-yl)-3,4,5,6-tetrahydroazepino[4,5-b]indol-2(1H)-one], the IC50 was more than 10000 nM in assay [1] and 110 nM in assay [2].
As for `N#CCc1cc(Cl)c(Cl)c2[nH]c3c(c12)CC(=O)NCC3` [Example 28, 2-(7,8-Dichloro-2-oxo-1,2,3,4,5,6-hexahydroazepino[4,5-b]indol-10-yl)acetonitrile], the values for the 50% inhibitory concentration (IC50) in assay [1] and in assay [2] were 914 nM and 58.1 nM, respectively.
Turning to `O=C1Cc2c([nH]c3c(Cl)c(Cl)cc(-c4nnc[nH]4)c23)CCN1` [Example 29, 7,8-Dichloro-10-(4H-1,2,4-triazol-3-yl)-3,4,5,6-tetrahydroazepino[4,5-b]indol-2(1H)-one], the concentration for half-maximal inhibition (IC50) in assay [1] is more than 10000 nM; in assay [2] it was 122 nM.
`CCNc1cc(Cl)c(Cl)c2[nH]c3c(c12)CC(=O)NCC3` [Example 30, 7,8-Dichloro-10-(ethylamino)-3,4,5,6-tetrahydroazepino[4,5-b]indol-2(1H)-one]: the values for the IC50 in assay [1] and in assay [2] were 3730 nM and 119 nM, respectively.
Take `CC1C(=O)NCCc2[nH]c3c(Cl)c(Cl)cc(CC#N)c3c21` (stereo not shown) [Example 31, 2-(7,8-Dichloro-1-methyl-2-oxo-1,2,3,4,5,6-hexahydroazepino[4,5-b]indol-10-yl)acetonitrile]: the results for the IC50 in assay [1] and in assay [2] were 1120 nM and 39.5 nM, respectively.
Regarding `NC(=O)C(=O)Nc1cc(Cl)c(Cl)c2[nH]c3c(c12)CC(=O)NCC3` [Example 32, N^1-(7,8-Dichloro-2-oxo-1,2,3,4,5,6-hexahydroazepino[4,5-b]indol-10-yl)oxalamide], the IC50 is 1400 nM in assay [1] and 33.3 nM in assay [2].
Take `Nc1noc(-c2cc(Cl)c(Cl)c3[nH]c4c(c23)CC(=O)NCC4)n1` [Example 33, 10-(3-Amino-1,2,4-oxadiazol-5-yl)-7,8-dichloro-3,4,5,6-tetrahydroazepino[4,5-b]indol-2(1H)-one]: the IC50 in assay [1] came to 1200 nM; in assay [2] it was 20.4 nM.
`Nc1cncc(-c2cc(Cl)c(Cl)c3[nH]c4c(c23)CC(=O)NCC4)n1` [Example 34, 10-(6-Aminopyrazin-2-yl)-7,8-dichloro-3,4,5,6-tetrahydroazepino[4,5-b]indol-2(1H)-one]: the results for the IC50 in assay [1] and in assay [2] were 1730 nM and 39.5 nM, respectively.
As to `C[C@H]1C(=O)NCCc2[nH]c3c(Cl)c(Cl)cc(-c4cnn(C)n4)c3c21` [Example 38, (R)-7,8-Dichloro-1-methyl-10-(2-methyl-2H-1,2,3-triazol-4-yl)-3,4,5,6-tetrahydroazepino[4,5-b]indol-2(1H)-one Or (S′)-7,8-Dichloro-1-methyl-10-(2-methyl-2H-1,2,3-triazol-4-yl)-3,4,5,6-tetrahydroazepino[4,5-b]indol-2(1H)-one], the IC50 in assay [1] was found to be 9800 nM; in assay [2], 1650 nM.
For `COCC(=O)Nc1cc(Cl)c(Cl)c2[nH]c3c(c12)C(C)C(=O)NCC3` (stereo not shown) [Example 39, N-(7,8-Dichloro-1-methyl-2-oxo-1,2,3,4,5,6-hexahydroazepino[4,5-b]indol-10-yl)-2-methoxyacetamide], the figures for the IC50 in assay [1] and in assay [2] were 892 nM and 54.4 nM, respectively.
The matching figures for `CC1C(=O)NCCc2[nH]c3c(Cl)c(Cl)cc(NC(=O)C4CCO4)c3c21` (stereo not shown) [Example 44, N-(7,8-Dichloro-1-methyl-2-oxo-1,2,3,4,5,6-hexahydroazepino[4,5-b]indol-10-yl)oxetane-2-carboxamide]: 2790 nM and 38.9 nM.
Take `CCCNc1cc(Cl)c(Cl)c2[nH]c3c(c12)C(C)C(=O)NCC3` (stereo not shown) [Example 45, 7,8-Dichloro-1-methyl-10-(propylamino)-3,4,5,6-tetrahydroazepino[4,5-b]indol-2(1H)-one]: the IC50 in assay [1] is 2230 nM; in assay [2] it was 46.6 nM.
Consider `CC1C(=O)NCCc2[nH]c3c(Cl)c(Cl)cc(NCc4cocn4)c3c21` (stereo not shown) [Example 57, 7,8-Dichloro-1-methyl-10-((oxazol-4-ylmethyl)amino)-3,4,5,6-tetrahydroazepino[4,5-b]indol-2(1H)-one], for which the IC50 in assay [1] was found to be 558 nM; in assay [2], 42.1 nM.
With `Cc1conc1Nc1cc(Cl)c(Cl)c2[nH]c3c(c12)C(C)C(=O)NCC3` (stereo not shown) [Example 67, 7,8-Dichloro-1-methyl-10-((4-methylisoxazol-3-yl)amino)-3,4,5,6-tetrahydroazepino[4,5-b]indol-2(1H)-one], the IC50 turned out to be 1030 nM in assay [1] and 30.6 nM in assay [2].
With `CC1C(=O)NCCc2[nH]c3c(Cl)c(Cl)cc(NCC(F)F)c3c21` (stereo not shown) [Example 70, 7,8-Dichloro-10-((2,2-difluoroethyl)amino)-1-methyl-3,4,5,6-tetrahydroazepino[4,5-b]indol-2(1H)-one], the results for the IC50 in assay [1] and in assay [2] were 1290 nM and 30.5 nM, respectively.
Consider `CC1C(=O)NCCc2[nH]c3c(Cl)c(Cl)cc(NCCC(F)F)c3c21` (stereo not shown) [Example 71, 7,8-Dichloro-10-((3,3-difluoropropyl)amino)-1-methyl-3,4,5,6-tetrahydroazepino[4,5-b]indol-2(1H)-one], for which the IC50 in assay [1] was found to be 2320 nM; in assay [2], 43 nM.
